Source: publication PMC9225265, “Functional Analysis of the Plasma Membrane H^+-ATPases of Ustilago maydis” (Journal of Fungi, 2022)

Test system: T1, plasma membrane H+-ATPases of wild-type FB2 (Pma1 and Pma2)
T1 construct: native enzymes in isolated plasma membrane fraction of wild-type sporidia; both pumps present; vanadate-sensitive ATPase activity
Experiment: Pi release (Fiske-Subbarow), vanadate-sensitive ATPase activity of plasma membrane fraction, Michaelis-Menten fit
Format: biochemical, Mycosarcoma maydis
Conditions: MES pH 6.5, 5 mM MgCl2, 30 °C, ATP regenerating system (phosphoenolpyruvate / pyruvate kinase), NaN3, KNO3, Pma1 and Pma2 together, rounded value for all strains, exact value in figure

**Q.** Which Km does the source give for `Nc1ncnc2c1ncn2[C@@H]1O[C@H](COP(=O)(O)OP(=O)(O)OP(=O)(O)O)[C@@H](O)[C@H]1O` [Mg-ATP] here?
**A.** ~2000 µM
